Values quoted from earlier work as cited in patent US20220347144A1, “COMPOSITIONS AND METHODS FOR PREVENTING AND/OR REDUCING WEIGHT GAIN AND ASSOCIATED CONDITIONS” (University of Virginia Patent Foundation, priority 2019, published 2022).

Key:
rats [1] = settings: in rapeseed oil, Hulan et al., 1977; cited from earlier work
rats [2] = settings: triglyceride form, Kojima et al., 2010; cited from earlier work

SMILES | heart lesions (rats [1]) | obesity (rats [2])
CCCCCCCC/C=C\CCCCCCCCCCCC(=O)O [erucic acid, (Z)-docos-13-enoic acid] | implicated in causing heart lesions | –
CCCCCCCCCCCCCCCCCCCCCC(=O)O [behenic acid] | – | prevented obesity
